Patent publication US12162918B2, “Periostin compounds for the treatment of haematological complications” (Chemotherapeutisches Forschungsinstitut Georg-Speyer-Haus, priority 2018, dated 2024)

Columns and labels:
Lin− hematopoietic cells = experiment: Direct effect of warfarin on Lin− hematopoietic cells in vitro; format: cell-based, mice
Procedure: (§1) Concentrations of drugs for in vitro use were 2 μM for warfarin, 2 μg/ml for periostin, 5 μM for the AKT inhibitor MK-2206 (Selleck Chemicals, Houston, TX) and cilengitide (Selleck Chemicals, Houston, TX, Cat. No. #S7077) was used at 0.05 μM. Phosphate buffered saline served as the vehicle control.
To test the direct effect of warfarin on hematopoietic cells 100,000 Lin− cells were cultured in 2 μM vehicle or warfarin in the absence of stroma cells for a total of 7 days. For the in vitro rescue experiment with periostin stroma cells were grown in warfarin for 14 days, before vehicle or periostin were added.

Lin− and LKS cells = experiment: Homing assay to a warfarin-treated BMM; format: in vivo, mice; settings: 18 hours after transplantation
Procedure: In the homing assay, we intravenously transplanted 9×10^6 Actin DsRed+ whole BM cells into C57BL/6N mice treated with vehicle or warfarin for 14 days. 18 hours later, we analyzed BM and spleen cells of recipient mice for the presence of DsRed+ LKS cells.

murine stroma cells = experiment: Differentiation, gene expression and apoptosis of stroma and calvaria cells in presence of warfarin; format: cell-based
Procedure: as §1
Bones from mice were crushed and plated and hematopoietic cells were removed the following day. As described (Mukherjee et al., 2008), after reaching confluence the stroma cells were cultured in α-MEM medium containing 10 mM β-glycerolphosphate, 10 nM dexamethasone and 50 μg/ml ascorbic acid for differentiation into osteoblastic cells (Mukherjee et al., 2008) or 500 nM insulin and 100 nM dexamethasone for differentiation into adipocytes. Differentiation was tested after 14-20 days by staining for von Kossa in the case of osteoblastic cells and Oil Red O in the case of adipocytes following standard staining protocols. Osteoclasts were purified from bone marrow macrophages, following standard protocols. Briefly, bone marrow cells were isolated from the femora and tibiae of 6-8 week old C57/B16 animals and cultured overnight at 37 C in α-MEM medium containing 10% fetal bovine serum and 1% antibiotic/antimycotic. The following day non-adherent cells were collected and separated by centrifugation on 50% Ficoll-Paque. Bone marrow-derived macrophages were seeded at 20,000 cells/well and cultured for 3 days in the presence of macrophage colony-stimulating factor (M-CSF) (50 ng/ml). On day 4 cells were also treated with receptor activator of nuclear factor kappa-B ligand (RANKL) (50 ng/ml) for an additional 4-5 days prior to tartrate-resistant acid phosphatase (TRAP) staining. Cells were treated with vehicle or warfarin (2 μM) for the entire culture period. […]
Quantitative PCR was performed using standard protocols.

human CD34+ cells [1] = experiment: Xenotransplantation of human CD34+ cells into warfarin-treated NSG mice; format: in vivo; settings: warfarin- vs vehicle-treated NSG mice, 6 weeks after transplantation, P=0.015
Procedure: (§2) 0.5 mg/kg/d or 0.05 mg/kg/d of warfarin, resuspended in phosphate-buffered saline was administered to mice via subcutaneously implanted osmotic minipumps (ALZET minipumps, Cupertino, CA). The osmotic minipumps were changed after 14 days (if the experiment went beyond 14 days of treatment). Sham operated (skin incision and suture) mice served as controls. Warfarin treatment continued for 10-14 days. In the xenotransplantation experiments the mice were treated with warfarin via the drinking water (or normal drinking water) at a dose of 0.72 mg/100 ml for a total of 3 days a week (Pfeilschifter et al., 2011).
For the xenotransplantation experiments, we intravenously injected 1.3×10^5 human CD34+ cells, obtained via magnetic separation by magnetic beads (Miltenyi Biotech, Bergisch Gladbach, Germany) from BM filters used after harvest of non-mobilized HSPC from healthy allogeneic donors, into irradiated (250 cGy) NSG mice, which had previously been treated with vehicle or warfarin for 14 days.
We assessed the complete blood count of vehicle or warfarin-treated mice using a complete blood count analyzer (Scil Vet ABC, Gurnee, IL). […] Engraftment of human cells in NSG mice was assessed using anti-human CD45 (BD Biosciences, San José, CA).

human CD34+ cells [2] = experiment: Intrafemoral cotransplantation of human CD34+ cells with treated human stroma cells into NSG mice; format: in vivo
Procedure: For the intrafemoral co-transplantation experiments 0.8×10^5 human CD34+ cells or 1×10^5 Lin− cells from Actin-DsRed reporter mice were mixed with 5×10^5 human or murine stroma cells which had been expanded in vitro and pretreated with vehicle or 2 μM warfarin for 14 days. The human stromal cells had been obtained via flushing of discarded bones from the orthopedic operating room, as approved of by the local ethics committee.
We assessed the complete blood count of vehicle or warfarin-treated mice using a complete blood count analyzer (Scil Vet ABC, Gurnee, IL). Peripheral blood and bone marrow samples were stained with antibodies for flow cytometry, which was performed on a BD LSR Fortessa (BD Biosciences, Heidelberg, Germany). The lineage antibody cocktail contained antibodies to B220, CD5, Ter119, F4/80 and CD11b. Engraftment of human cells in NSG mice was assessed using anti-human CD45 (BD Biosciences, San José, CA).
Stroma and hematopoietic cells (purified for CD34+) were taken from the iliac crest of healthy donors of allogeneic bone marrow.

wildtype mice = experiment: Measurement of the INR of warfarin-treated mice; format: in vivo; settings: only at 0.5 mg/kg, vs sham-operated control mice, P=0.009
Procedure: as §2
A Coaguchek XS (Roche Diagnostics, Mannheim, Germany) and Coaguchek XS PT test strips were used to determine the INR of vehicle- and warfarin-treated mice.

CD45.1+ LKS cells = experiment: Transplantation of sorted LKS or Lin− cells from warfarin-treated mice into untreated recipients; format: in vivo
Procedure: SJL (CD45.1) donor mice were treated with vehicle or warfarin, euthanized and long bones were flushed, followed by RBC lysis (Life Technologies, Darmstadt, Germany). For competitive transplantation 2×10^6 total BM cells from SJL mice were co-transplanted with 1×10^6 CD45.2+ BM competitor cells into lethally irradiated (900 cGy) C57BL/6N (CD45.2+) recipient mice. For serial transplantation 2×10^6 total CD45.1+ BM cells were transplanted into lethally irradiated C57BL/6N recipient mice. Cell engraftment and chimerism were assessed by flow cytometry of peripheral blood leukocytes for CD45.1 and CD45.2 after 4, 8, 12 and 16 weeks post transplantation. In the limiting dilution experiment we treated primary CD45.1+ donor mice with vehicle or warfarin for 14 days and, consequently, transplanted 5×10^5, 12.5×10^4, 6×10^4 and 1.5×10^4 pooled BM cells into 5 CD45.2+ recipients per group adding 5×10^5 CD45.2+ supporter cells. In indicated experiments we transplanted 5,000 or 10,000 sorted CD45.1+ LKS cells from mice treated with vehicle or warfarin plus 1×10^6 CD45.2+ total BM supporter cells into CD45.2+ recipient mice.

## CC(=O)CC(c1ccccc1)c1c(O)c2ccccc2oc1=O (stereo not shown) [warfarin]
Lin− hematopoietic cells; 2 μM warfarin or vehicle for 7 days, scored day 10
  number of colonies from Lin− cells previously exposed in vitro: did not yield significantly different numbers of colonies
Lin− hematopoietic cells; Lin− cells cultured in warfarin-containing media
  effect on phenotypical Lin− or LKS cells, annexin V+ dead cells, cycling or myeloid cells: no direct effect
Lin− and LKS cells
  homing of Lin− and LKS cells to a warfarin-treated BMM: not compromised
Murine stroma cells; P=0.05
  apoptosis of stroma cells in vitro: modest, but significant increase
Murine stroma cells; in presence of warfarin
  differentiation of murine stroma cells to adipocytes and osteoblasts: significantly compromised
Murine stroma cells; primary calvaria cells, warfarin vs vehicle
  relative expression of osteoblastic genes (Runx2, Alpl, Col1a1, Osx, Spp1, Bglap and others): significantly reduced
Human CD34+ cells [1]
  engraftment of human CD45+ leukocytes: reduced engraftment
Human CD34+ cells [2]; 6 months after transplantation
  huCD45+ engraftment in femora: only trends towards lower
Human CD34+ cells [2]; cotransplanted with warfarin-treated human stroma, 4 weeks, P=0.046
  engraftment of human CD45+ leukocytes: decreased engraftment
Wildtype mice
  international normalized ratio (INR): modest, but significant increase
CD45.1+ LKS cells; Lin− cells from a warfarin-treated BMM, P=0.04
  percentage of Lin− cells in the S/G2/M phases after transplantation into an untreated BMM: increase
CD45.1+ LKS cells; equal numbers of LKS cells from warfarin-treated donors, one month after transplantation, P=0.03
  percentage of CD45.1+ donor cells in peripheral blood of recipients: higher percentage
CD45.1+ LKS cells; higher number of transplanted LKS cells, 16 weeks post transplantation
  reconstitution by warfarin-treated LKS cells: lower than in the case of control LKS cells
